One data set has as its system A172 cells. The data set can be described thus: RNA-seq transcriptomics in A172 cells. Format: cell-based. To be noted: 30 nM, 24 h. How it is done:
Following treatment, cells were harvested, washed three times with pre‐chilled PBS, and stored at −80 °C. Total RNA was extracted using TRIzol reagent according to the manufacturer's instructions. mRNA was enriched using oligo(dT) magnetic beads, followed by fragmentation in First Strand Synthesis Reaction Buffer (5×) with divalent cations under elevated temperature.
RNA‐seq libraries were constructed using the ABclonal Fast RNAseq Lib Prep Kit V2 (#RK20306). […] Base calling was performed through real‐time fluorescence capture of polymerase‐driven extension reactions using fluorescently labeled dNTPs and adapter‐anchored primers. Gene‐level read counts were quantified using featureCounts (v2.0.6) and normalized to FPKM values by incorporating gene length. Differential expression analysis was conducted using the DESeq2 package (v1.42.0) for samples with biological replicates, based on the negative binomial distribution. P‐values were adjusted using the Benjamini–Hochberg method, with significance thresholds set at adjusted p ≤ 0.05 and |log2(fold change)| ≥ 1. For samples without replicates, edgeR (v4.0.16) was used, with scaling normalization applied to correct for sequencing depth differences. Functional enrichment analysis, including Gene Ontology (GO) and KEGG pathway analysis, was performed using clusterProfiler (v4.8.1), with correction for gene length bias. A significance threshold of adjusted p < 0.05 was applied. In addition, Gene Set Enrichment Analysis (GSEA) was performed to assess coordinated expression changes in predefined gene sets (GO and KEGG), with genes ranked by the magnitude of differential expression. All transcriptomic experiments were performed by Novogene Co., Ltd.

The subject of the next data set is ES2 xenograft. As to the kind of experiment: ES2 xenograft efficacy study. It counts as in vivo, BALB/c nude mice. To be noted: 10 and 30 mg/kg. How it is done:
(§1) Animal experiments were conducted by Medsyin (Shanghai) Co., Ltd. The experimental protocol was approved by the IACUC of the company (No.: PZWH‐2025031003) and strictly adhered to the guidelines of the AAALAC. The specific procedures are as follows: 5 × 10^6 MSTO‐211H cells or ES2 cells were suspended in 100 µL of a mixture of PBS and Matrigel and inoculated subcutaneously into the right axilla of 6‐week‐old BALB/c nude mice. Drug administration was initiated on day 7 after cell inoculation (when the average tumor volume was ≈150 mm^3). The experiment was divided into four groups with 6 mice in each group. The specific grouping and administration methods are as follows: control group, KY‐001 group (10 mg kg^−1, p.o.), KG‐FP‐003 (10 mg kg^−1 or 30 mg kg^−1, i.p.). The administration routes included intraperitoneal injection and intragastric administration, once a day for 21 consecutive days. During the experiment, the body weight and tumor volume of the mice were measured twice a week. At the end of the experiment, the mice were sacrificed and tumor tissues were collected.

For a further data set, the system named is BMF, CTGF expression. The data set can be described thus: RT-qPCR in MSTO-211H cells. It counts as cell-based. As to the method:
Cells were seeded in 6‐well plates at a density of 1 million cells per well. The following day, different concentrations of compounds were added, and cells were collected after 24 h. For wash‐out experiments, cells were pre‐treated with compounds at indicated concentrations for 6 h, then cells were washed three times with PBS, and an equal volume of complete medium without compounds was added and incubated for another 18 h.
RNA was isolated and purified from the samples using the EZ‐10 Rotary Column Total RNA Isolation Kit (Sangon Biotech, B615012). After measuring the RNA concentration, 200 ng of purified RNA was used for genomic DNA removal and reverse transcription to cDNA with the HiScript III 1st Strand cDNA Synthesis Kit (+DNA wiper) (Vazyme, R312‐02). The resulting cDNA was then prepared into a reaction mix according to the ChamQ SYBR qPCR Mix (Vazyme, #q711‐02). Real‐time PCR analysis was performed using a QuantStudio 6 Pro real‐time PCR system (Thermo Fisher Scientific). Relative gene expression was calculated using the 2‐∆∆CT method. The primers used in this study were provided in the Supporting Information (Table S1, Supporting Information)
In general terms: In qPCR the cycle at which signal appears reflects the starting amount.

The next data set has as its system MSTO-211H xenograft. The data set can be described thus: MSTO-211H xenograft efficacy study. Format: in vivo, BALB/c nude mice. To be noted: for Tumor growth inhibition (TGI) rate: MSTO-211H xenograft. As to the method:
as §1

For another data set, the target named is TEAD1 (Homo sapiens, UniProt P28347). The data set can be described thus: Immunoblot of TEAD1 degradation in TEAD1-mNeonGreen fusion NCI-H1299 cells. It counts as cell-based. More on the design: endogenous in cells; host or cells: NCI-H1299 (TEAD1-mNeonGreen knock-in). To be noted: 100 nM, TEAD1-mNeonGreen fusion NCI-H1299 cells. How it is done:
(§2) Immunoblotting was carried out as previously described.^[ [29] ^] Cells were seeded in 6‐well plates (Yeasen, #84011ES50) at a density of 1 million cells per well. The following day, cells were treated with compounds at the required concentrations, with the DMSO concentration kept below 0.4‰ to prevent toxic effects on the cells. The collected cell pellets were washed three times with PBS (Meilunbio, #MA0015) and resuspended in 120 µL of RIPA lysis buffer (Meilunbio, #MA0151) containing 1% protease inhibitor (Meilunbio, #MB2678‐2). The cells were then sonicated on ice and centrifuged at 12 000 rpm for 15 min at 4 °C to remove cellular debris. Protein concentrations were determined using the BCA Protein Quantification Kit (Meilunbio, #MA0082‐1). The protein samples were normalized, boiled at 99 °C for 10 min, and then subjected to electrophoresis on a 10% SDS‐PAGE gel. The separated protein bands were transferred to nitrocellulose membranes, blocked with TBST containing 5% BSA, and incubated with the indicated primary antibodies. Finally, the blots were imaged using an Amersham Typhoon NIR imager.
A general note: Immunoblotting shows a protein as a band on a membrane.

The next data set has as its system NCI-H226 cells. As to the kind of experiment: Cell viability assay (CTG, 72 h) NCI-H226. To be noted: Homo sapiens, NCI-H226, 72 h; 3-day antiproliferation; read-out: IC50 (nM ± SD), NCI-H226. It counts as cell-based. As to the method:
Cells were seeded at a density of 1000 cells per well in 96‐well flat‐bottomed cell culture plates and cultured overnight at 37 °C with 5% CO2 to allow for cell attachment. The following day, different concentrations of compounds were added using an I‐DOT dispenser. After 72 h, 25 µL of CellTiter‐Meiluncell Luminescent Cell Viability Reagent (Meilunbio, #PWL111‐2) was added and incubated for 15 min at room temperature. Luminescence signals were then measured using an Envision plate reader (Revvity). Data were analyzed using GraphPad Prism 9.5 software.^[ [30] ^]

In the next data set the test system is TEAD1, TEAD3, and TEAD4. As to the kind of experiment: Immunoblot dose-response in TEAD1-mNeonGreen fusion NCI-H1299 cells. Format: cell-based. To be noted: 6 h. How it is done:
as §2

Structures are written as SMILES.

This note sets out measurements from paper PMC12752627, “Discovery of a Potent and Selective TEAD Degrader with Durable Degradation Activity” (Advanced Science, 2025).

TEAD1, sequence (P28347 whole entry, the tested form may be a part): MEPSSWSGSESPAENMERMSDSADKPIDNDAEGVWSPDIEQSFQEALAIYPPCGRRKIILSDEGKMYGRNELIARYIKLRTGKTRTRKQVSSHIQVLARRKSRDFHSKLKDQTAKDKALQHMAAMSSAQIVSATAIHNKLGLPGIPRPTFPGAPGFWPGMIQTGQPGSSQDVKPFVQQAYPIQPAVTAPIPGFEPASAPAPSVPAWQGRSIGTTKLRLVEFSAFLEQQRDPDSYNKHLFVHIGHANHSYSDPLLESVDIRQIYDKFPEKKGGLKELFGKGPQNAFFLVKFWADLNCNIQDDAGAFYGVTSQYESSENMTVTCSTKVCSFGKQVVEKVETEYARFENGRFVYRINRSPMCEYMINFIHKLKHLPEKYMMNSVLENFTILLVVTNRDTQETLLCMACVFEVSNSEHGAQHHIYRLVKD
TEAD1, sequence (Q96SW2 whole entry, further chain, the tested form may be a part): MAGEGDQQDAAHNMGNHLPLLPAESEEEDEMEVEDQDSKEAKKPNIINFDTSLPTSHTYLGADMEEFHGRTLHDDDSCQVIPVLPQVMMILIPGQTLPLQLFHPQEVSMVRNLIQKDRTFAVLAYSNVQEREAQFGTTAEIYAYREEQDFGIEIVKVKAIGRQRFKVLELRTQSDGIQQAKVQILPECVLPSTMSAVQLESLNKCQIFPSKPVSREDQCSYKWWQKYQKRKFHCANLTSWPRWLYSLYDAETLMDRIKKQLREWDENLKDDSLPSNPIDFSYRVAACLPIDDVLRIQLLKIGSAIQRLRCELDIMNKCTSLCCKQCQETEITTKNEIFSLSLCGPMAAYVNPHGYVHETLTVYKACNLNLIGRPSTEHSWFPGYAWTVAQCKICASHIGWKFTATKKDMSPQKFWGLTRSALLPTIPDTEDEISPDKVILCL
TEAD1, sequence (Q16531 2-1140 partner limits assumed): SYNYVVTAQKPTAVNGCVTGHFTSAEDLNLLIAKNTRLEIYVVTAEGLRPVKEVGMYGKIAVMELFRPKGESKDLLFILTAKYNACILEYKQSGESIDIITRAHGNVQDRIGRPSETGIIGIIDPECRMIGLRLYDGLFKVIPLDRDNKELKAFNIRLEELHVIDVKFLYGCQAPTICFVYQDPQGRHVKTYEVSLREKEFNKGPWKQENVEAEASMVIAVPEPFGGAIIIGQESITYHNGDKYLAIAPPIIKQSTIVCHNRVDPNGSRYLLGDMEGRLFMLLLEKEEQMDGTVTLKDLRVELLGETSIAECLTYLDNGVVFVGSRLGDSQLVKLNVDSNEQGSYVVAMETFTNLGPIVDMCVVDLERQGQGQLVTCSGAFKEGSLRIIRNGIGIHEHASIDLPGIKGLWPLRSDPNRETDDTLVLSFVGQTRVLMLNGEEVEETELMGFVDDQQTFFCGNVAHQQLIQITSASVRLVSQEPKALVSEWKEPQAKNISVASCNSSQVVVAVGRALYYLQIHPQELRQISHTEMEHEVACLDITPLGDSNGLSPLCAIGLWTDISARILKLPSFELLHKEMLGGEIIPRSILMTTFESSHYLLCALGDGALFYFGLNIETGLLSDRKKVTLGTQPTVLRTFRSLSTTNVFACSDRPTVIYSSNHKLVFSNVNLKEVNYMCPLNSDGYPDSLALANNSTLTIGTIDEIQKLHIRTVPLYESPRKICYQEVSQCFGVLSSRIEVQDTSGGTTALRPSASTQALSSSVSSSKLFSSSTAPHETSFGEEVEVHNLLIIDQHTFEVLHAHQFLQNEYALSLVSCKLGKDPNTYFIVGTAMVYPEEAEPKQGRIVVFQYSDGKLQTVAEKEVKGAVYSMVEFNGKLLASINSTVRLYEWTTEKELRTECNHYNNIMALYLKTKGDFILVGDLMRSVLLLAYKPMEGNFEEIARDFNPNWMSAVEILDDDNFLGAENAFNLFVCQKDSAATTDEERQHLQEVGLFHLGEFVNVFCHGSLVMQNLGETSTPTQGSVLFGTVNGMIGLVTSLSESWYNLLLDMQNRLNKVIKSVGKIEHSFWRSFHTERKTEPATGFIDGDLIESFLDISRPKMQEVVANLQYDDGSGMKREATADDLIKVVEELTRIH

As to `CNC(=O)c1cc2c(c(F)c1-c1c(Cl)c(F)cc3c1C[C@@](CN[C@H]1CC[C@H](C(=O)N4CCC(CC5CCN(C(=O)COc6ccc(N7CCC(=O)NC7=O)c(C)c6)CC5)CC4)CC1)(c1ccccc1)O3)[C@@H](O)[C@@H](C)C2` [KG-FP-003], the “Share of the compound's regulated genes in the 56-gene overlap” value in the data set on A172 cells came to 4%. Also, in the data set with A172 cells (VS Control (DMSO)), the “DEG gene counts (Down)” value was determined as 611 and the “DEG gene counts (Up)” value is 662. Moreover, the “Tumor response in ES2 xenograft” value in the data set on ES2 xenograft is given as “significant tumor regression”. In the data set with BMF, CTGF expression, the “Expression of TEAD target gene CTGF (qPCR)” value was “downregulation” and the “Expression of pro-apoptotic gene BMF (qPCR)” value is “dramatic upregulation”. Besides, in the data set with MSTO-211H xenograft (10 mg/kg i.p. q.d. 21 days), the “Tumor growth inhibition (TGI) rate” value is on record as 118%. Also, in the data set on MSTO-211H xenograft (30 mg/kg i.p. q.d. 21 days), the “Tumor growth inhibition (TGI) rate” value is recorded as 129%. Further, the “Body weight during treatment” value in the data set with MSTO-211H xenograft (10 or 30 mg/kg i.p., 21 days, MSTO-211H xenograft mice) was “stable body weights”. Moreover, the “Duration of sustained TEAD1 degradation” value on TEAD1 is listed as “up to 12 days”. Further, the half-inhibitory concentration (IC50) with NCI-H226 cells amounted to 27 ± 7 nM. For the same compound, the “DC50 against TEAD1, TEAD3, and TEAD4 by immunoblot” value in the data set with TEAD1, TEAD3, and TEAD4 was “nanomolar range”.

What is called IC50 is the concentration that inhibits the measured activity by half.
